What was measured:
[1] = test system: Human cord blood-derived CD34+ cells transplanted in NSG mice; experiment: Transplantation of transduced human HSPC in NSG mice; type: in vivo, NOD-SCID-IL2Rg−/− (NSG) mice
Experimental: NOD-SCID-IL2Rg−/− (NSG) mice were purchased from Jackson laboratory. All animal procedures were performed according to protocols approved by the Animal Care and Use Committee of the Ospedale San Raffaele (IACUC 661) and communicated to the Ministry of Health and local authorities according to Italian law. […] After transduction, 1.3×10^5 cells were infused into the tail vein of sublethally irradiated 10-week-old NSG mice (radiation dose: 200 cGy for mice weighing 18-25 g and 220 cGy for mice above 25 g of weight). Transduced and untransduced cells were also cultured in vitro for 14 days for further analysis. In vitro cultured cells and BM cells isolated from transplanted mice at the time of sacrifice were then used to quantify the VCN by qPCR.
For each mouse, 250 μL of peripheral blood were added to 15 μL of PBS containing 45 mg/mL EDTA. For immunostaining, a known volume of whole blood (100 μL) was first incubated with anti-human FcγIII/II receptor (Cd16/Cd32) blocking antibodies for 15 min at 4° C. and then incubated in the presence of monoclonal antibodies (for antibodies, see Table 1) for 20 min at 4° C. Erythrocytes were removed by lysis with the TQ-Prep workstation (Beckman-Coulter) in the presence of an equal volume of FBS (100 μL) to protect white blood cells.
BM cells were obtained by flushing the femurs in PBS 2% FBS solution. Cells (1×10^6 cells) were washed, resuspended in 100 μL of PBS containing 2% FBS, and incubated with anti-human receptor (Cd16/Cd32) blocking antibodies for 15 min at 4° C. Staining was then performed with monoclonal antibodies (for antibodies, see Table 1) for 20 min at 4° C. Cells were washed and finally resuspended in PBS containing 2% FBS.
Spleens were first smashed and the resulting cell suspension was passed through 40 μm nylon filter and washed in cold phosphate buffered saline (PBS) containing 2 mM EDTA and 0.5% bovine serum albumin (BSA). Cells were incubated with anti-human receptor (Cd16/Cd32) blocking antibodies for 15 min at 4° C. and then stained with anti-human monoclonal antibodies (for antibodies, see Table 1) for 20 min at 4° C. Cells were finally washed and resuspended in PBS containing 2% FBS.

BM-derived CD34+ cells = experiment: γ-retroviral SINRV-GFP transduction of BM-derived CD34+ cells; type: cell-based, human; conditions: BM-derived HSPC; MOI of 10 (FIG. 24)
Experimental: A, B. The percentage of GFP+ cells was evaluated by FACS five days after transduction. Data represent the mean±SEM of four independent experiments.
Third generation lentivirus (LV) stocks were prepared, concentrated and titred as previously described (Dull, T. et al. (1998) J. Virol. 72: 8463-71; Follenzi, A. et al. (2000) Nat. Genetics 25: 217-22). […]. Bald vector, a normal LV produced by omitting the Env-encoding plasmid during vector production, was produced as a negative control. During vector production, the Env construct was substituted by pcDNA3.1 (Invitrogen Inc.). […]
Human CB and BM-derived haematopoietic stem/progenitor cells (HSPC) were cultured in serum-free StemSpan medium (StemCell Technologies) supplemented with 100 ng/mL recombinant human stem cell factor (rhSCF), 20 ng/mL recombinant human thrombopoietin (rhTPO), 100 ng/mL recombinant human Flt3 ligand (rhFlt3) and 20 ng/mL recombinant human IL6 (rhIL6) (all from Peprotech) 16 to 24 hours prior to transduction. […] After transduction, cells were washed and maintained serum-free StemSpan supplemented with cytokines as above until the reading of GFP-positive (GFP+) cells by FACS. […]

Murine Lin− HSPC = experiment: SINLV-GFP transduction of murine Lin- HSPC; type: cell-based; conditions: MOI 1, 10 μM CsA, 10 μg/ml Rapamycin or combination (FIG. 29A)
Experimental: The percentage of GFP+ cells was evaluated by FACS 5 days post-transduction. Data are the mean±SEM of three independent experiments for HSPC and three independent transductions for CD4+ T cells. p values are for One way ANOVA with Bonferroni's multiple comparison.

CB-derived CD34+ cells = experiment: γ-retroviral SINRV-GFP transduction of CB-derived CD34+ cells; type: cell-based, human; conditions: CB-derived HSPC; MOI of 10 (FIG. 24)
IFNα = IFNα ELISA on supernatants of transduced CB-derived HSPC; type: cell-based, human; conditions: CB-derived HSPC 24 hours after exposure (FIG. 26)
Experimental: IFNα levels in supernatants from HSPC transduced in the presence of the agents. […] IFNα concentration was assessed using the VeriKine™ Human IFN Alpha ELISA Kit. HUVEC-10 cells were used as a positive control and the medium in which the cells were cultured as the negative control. Data represent the mean±SEM of three independent experiments.
To assess the secretion of human IFNα upon transduction of CB-derived HSPCs in the presence of the different compounds, supernatants from transduced cells were harvested 24 hours post-transduction and the IFNα concentration was assessed using the VeriKine™ Human IFN Alpha ELISA Kit (PBL interferon source, #41100) according to manufacturer's instructions.

Question: `CO[C@H]1C[C@@H]2CC[C@@H](C)[C@@](O)(O2)C(=O)C(=O)N2CCCC[C@H]2C(=O)O[C@H]([C@H](C)C[C@@H]2CC[C@@H](O)[C@H](OC)C2)CC(=O)[C@H](C)/C=C(\C)[C@@H](O)[C@@H](OC)C(=O)[C@H](C)C[C@H](C)/C=C/C=C/C=C/1C` [rapamycin, Rapamycin] was tested. Which “overall percentage of GFP+ cells in the spleen” value ([1]; 20 weeks post-transplant (FIG. 22H), DMSO 49.0±5) did it give?
Answer: 80.8±1%

Question: What about the “GFP+/hCD45+ cells in peripheral blood” value ([1]; NSG mice, 11 weeks after transplant (FIG. 22C), DMSO 48±6) of the same molecule?
Answer: 78±2%

Question: What about the “VCN in the BM cells” value ([1]; NSG mice, 20 weeks post-transplant, DMSO 0.9±0.2) of the same molecule?
Answer: 3.6±0.4

Question: And the “levels of engraftment in the BM with respect to controls (in words)” value ([1]; NSG mice, 20 weeks post-transplant, p<0.047 v. DMSO)?
Answer: modest but statistically significant increase

Question: What about the “percentage of GFP+ cells with γ-retroviral SINRV” value (BM-derived CD34+ cells) of the same molecule?
Answer: neither compound was able to significantly increase

Question: What about the “transduction (percentage of GFP+ cells)” value (Murine Lin− HSPC) of the same molecule?
Answer: significantly improved transduction

Question: And the “percentage of GFP+ cells with γ-retroviral SINRV” value (CB-derived CD34+ cells)?
Answer: neither compound was able to significantly increase

Question: And the IFNα secretion (IFNα)?
Answer: no detectable levels
